{"source": "patent US6406866B1", "about": "(OREGON HEALTH SCIENCES UNIVERSITY, dated 2002)", "key": {"[1]": {"molecular_target": "T1, novel mammalian opioid receptor (MSOR, LC132) (Rattus norvegicus, UniProt P35370)", "T1 construct": "The entire coding region of the receptor cDNA insert was subcloned in to the RcRSV vector; expressed in transfected cells", "T1 sequence (P35370 whole entry)": "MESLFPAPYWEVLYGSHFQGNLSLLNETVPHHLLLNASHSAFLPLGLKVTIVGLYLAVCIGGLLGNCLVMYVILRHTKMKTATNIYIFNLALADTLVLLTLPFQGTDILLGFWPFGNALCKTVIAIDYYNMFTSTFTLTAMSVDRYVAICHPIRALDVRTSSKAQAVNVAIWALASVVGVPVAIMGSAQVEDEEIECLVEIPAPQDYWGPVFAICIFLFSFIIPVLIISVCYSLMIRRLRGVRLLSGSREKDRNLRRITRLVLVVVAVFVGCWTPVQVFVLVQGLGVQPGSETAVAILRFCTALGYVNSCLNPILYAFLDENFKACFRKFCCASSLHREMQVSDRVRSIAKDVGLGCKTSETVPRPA", "type": "binding"}, "[2]": {"tested_on": "untransfected COS-7 and Ltk- cells", "test": "Radioligand binding to membranes of untransfected cells (control)", "conditions": "untransfected COS-7 and Ltk- cell membranes"}, "[3]": {"test": "Open-field observation of behavioral signs after peptide administration", "type": "in vivo, mice", "experimental": "(§1) For these experiments, the peptide was administered intracerebroventricularly (i.c.v.) and intrathecally (i.t.) in mice. Immediately after peptide administration, mice were placed in transparent boxes in groups of three and behavioral signs recorded. Emphasis was placed on signs indicative of depressant, stimulant and autonomic effects of the peptide (as described by Irwin, 1968, Psychopharmacologia 13: 222). […] The effects of the peptide on horizontal (FIG. 10A) and vertical (FIG. 10B) locomotor activity was measured using Digiscan Animal Activity Monitors (Omnitech, Columbus Ohio). The values for horizontal and vertical locomotor activity represent the total number of interruptions of the horizontal and vertical sensors during the first 10 min following administration of the peptide. Data are shown as the mean ± standard error of the mean."}, "[4]": {"test": "Horizontal and vertical locomotor activity (Digiscan Animal Activity Monitors)", "type": "in vivo, mice", "conditions": "i.c.v., 0.1-10 nmol/2 μL/mouse, first 10 min", "experimental": "as §1"}, "[5]": {"test": "Hot plate test of nociception; toe- and tail-pinch reflexes", "type": "in vivo, mice", "experimental": "Groups of 6-8 male MORO mice (weight=22 g) were administered phosphate buffered saline (open circles) or varying doses of the orphanin peptide. Reaction time represents the time taken for the mice to lick their paws. The hot plate was set to 58° C., and a cutoff time of 60 sec was used. […] (designated by an asterisk). This observation was most likely related to a decrease in locomotor activity and muscle tone."}, "[6]": {"molecular_target": "T2, novel mammalian MSOR opioid receptor (methadone-specific opioid receptor) (rat, UniProt P35370 1-367)", "T2 chain": "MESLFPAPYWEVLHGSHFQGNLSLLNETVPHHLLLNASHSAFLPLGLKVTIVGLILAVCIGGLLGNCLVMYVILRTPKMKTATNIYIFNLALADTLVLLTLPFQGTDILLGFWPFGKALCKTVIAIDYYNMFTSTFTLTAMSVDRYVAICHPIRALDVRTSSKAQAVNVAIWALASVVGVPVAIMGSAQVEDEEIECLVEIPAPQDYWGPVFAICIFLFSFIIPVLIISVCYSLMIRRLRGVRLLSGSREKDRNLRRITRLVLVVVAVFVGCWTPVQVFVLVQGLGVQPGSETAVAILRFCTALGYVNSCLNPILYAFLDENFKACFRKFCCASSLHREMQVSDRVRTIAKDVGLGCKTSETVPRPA", "test": "cell-based or functional assay"}, "[7]": {"molecular_target": "T2, novel mammalian MSOR opioid receptor …", "test": "assay not described"}, "[8]": {"molecular_target": "T2, novel mammalian MSOR opioid receptor …", "test": "saturation radioligand binding (scintillation proximity assay) to membranes of MSOR-transfected CHO cells (LC-7), Scatchard analysis"}}, "data": [{"molecule": "CN1CC[C@]23c4c5ccc(O)c4O[C@H]2[C@@H](O)CC[C@H]3[C@H]1C5", "note": "[dihydromorphine]", "values": [{"measurement": "specific binding of the radioactively-labeled opioid agonist or antagonist", "setting": "[1]", "result": "no specific binding"}]}, {"molecule": "CCC(=O)C(CC(C)N(C)C)(c1ccccc1)c1ccccc1", "note": "(centres unmarked) [methadone]", "values": [{"measurement": "endogenous specific binding of the radioligand", "setting": "[2]", "result": "no or negligible amounts"}, {"measurement": "Bmax", "setting": "[1]", "result": "400-450 femtomoles/μg protein"}, {"measurement": "specific binding of the radioactively-labeled opioid agonist or antagonist", "setting": "[1]", "result": "specific binding was found"}]}, {"molecule": "CCC12CCN(CC3(O)CC3)C(Cc3ccc(O)cc31)C2(C)C", "note": "(centres unmarked) [bremacozine]", "values": [{"measurement": "specific binding of the radioactively-labeled opioid agonist or antagonist", "setting": "[1]", "result": "no specific binding"}]}, {"molecule": "CC[C@]12CCN(CC3CC3)[C@H](C(=O)c3ccc(O)cc31)[C@@H]2C", "note": "[ethylketocyclazocine]", "values": [{"measurement": "specific binding of the radioactively-labeled opioid agonist or antagonist", "setting": "[1]", "result": "no specific binding"}]}, {"molecule": "C=CCN1CC[C@]23c4c5ccc(O)c4O[C@H]2C(=O)CC[C@@]3(O)[C@H]1C5", "note": "[naloxone]", "values": [{"measurement": "endogenous specific binding of the radioligand", "setting": "[2]", "result": "endogenous low levels of specific"}]}, {"molecule": "β-endorphin", "values": [{"measurement": "specific binding of the radioactively-labeled opioid agonist or antagonist", "setting": "[1]", "result": "no specific binding"}]}, {"molecule": "CC(C)C[C@H](NC(=O)[C@H](CCCCN)NC(=O)[C@H](CCCNC(=N)N)NC(=O)[C@H](C)NC(=O)[C@H](CO)NC(=O)[C@H](CCCCN)NC(=O)[C@H](CCCNC(=N)N)NC(=O)[C@H](C)NC(=O)CNC(=O)[C@@H](NC(=O)[C@H](Cc1ccccc1)NC(=O)CNC(=O)CNC(=O)[C@@H](N)Cc1ccccc1)[C@@H](C)O)C(=O)N[C@@H](C)C(=O)N[C@@H](CC(N)=O)C(=O)N[C@@H](CCC(N)=O)C(=O)O", "note": "[orphanin FQ]", "values": [{"measurement": "ataxia", "setting": "[3]", "result": "ataxia"}, {"measurement": "muscle tone", "setting": "[3]", "result": "decrease in muscle tone"}, {"measurement": "righting reflex", "setting": "[3]", "result": "loss of righting reflex"}, {"measurement": "influence on locomotor activity", "setting": "[3]; i.c.v. and i.t. administration", "result": "profound influence on locomotor activity"}, {"measurement": "horizontal locomotion", "setting": "[4]", "result": "decrease"}, {"measurement": "vertical locomotion", "setting": "[4]", "result": "decrease"}, {"measurement": "toe- and tail-pinch reflexes", "setting": "[5]; all doses tested", "result": "normal"}, {"measurement": "inhibition of nociception", "setting": "[5]; i.c.v., all doses except the highest, 10 nmol/mouse", "result": "No significant inhibition"}, {"measurement": "analgesic effect in hot plate test", "setting": "[5]; i.c.v., hot plate 58° C., cutoff 60 sec", "result": "little analgesic effect"}, {"measurement": "analgesic effect", "setting": "[5]; i.t., 2.5-10 nmol/4 μL/animal", "result": "No analgesic effect"}, {"measurement": "motor effects at the highest dose", "setting": "[5]; i.t., highest dose", "result": "hindlimb paralysis and decrease in locomotor activity"}]}, {"molecule": "C[C@@H](NC(=O)[C@@H](N)Cc1ccc(O)cc1)C(=O)NCC(=O)N(C)[C@@H](Cc1ccccc1)C(=O)NCCO", "note": "[DAMGO, Tyr-DAla-Gly-Met-Phe-Gly-ol]", "values": [{"measurement": "specific binding of the radioactively-labeled opioid agonist or antagonist", "setting": "[1]", "result": "no specific binding"}]}, {"molecule": "FGGFTGARKSARKYANQ", "note": "[Y14-orphanin FQ]", "values": [{"measurement": "cAMP inhibition assay in MSOR-transfected CHO cells, EC50", "setting": "[6]", "result": 1, "unit": "nM"}]}, {"molecule": "YGGFMTSEKSQTPLVT", "note": "[α-endorphin]", "values": [{"measurement": "binding result", "setting": "[7]", "result": "no binding"}]}, {"molecule": "YGGFLRRIRPKLKWDNQ", "note": "[dynorphin A]", "values": [{"measurement": "binding result", "setting": "[7]", "result": "no binding"}]}, {"molecule": "YGGFLRRQFKVVT", "note": "[dynorphin B]", "values": [{"measurement": "binding result", "setting": "[7]", "result": "no binding"}]}, {"molecule": "FGGFTGARKSARKYANQ (monoiodotyrosine at position 14 (125I in the binding assay), made by the chloramine T method, also called I-Y14)", "note": "[monoiodinated Y14-orphanin FQ]", "values": [{"measurement": "Kd", "setting": "[8]", "result": 0.3, "unit": "nM"}]}, {"molecule": "YGGFL", "note": "[Leu-Enkephalin]", "values": [{"measurement": "binding result", "setting": "[7]", "result": "no binding"}]}]}
